The source made the active and inactive calls.
Tests used:
[1] = molecular target: T1, Sentrin-specific protease 8 (Homo sapiens, UniProt Q96LD8); assay type: functional;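 also: luminescence read-out of SENP8 inhibition, dose-response confirmation following an ultra-high-throughput screen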
T1 sequence (Q96LD8 whole entry): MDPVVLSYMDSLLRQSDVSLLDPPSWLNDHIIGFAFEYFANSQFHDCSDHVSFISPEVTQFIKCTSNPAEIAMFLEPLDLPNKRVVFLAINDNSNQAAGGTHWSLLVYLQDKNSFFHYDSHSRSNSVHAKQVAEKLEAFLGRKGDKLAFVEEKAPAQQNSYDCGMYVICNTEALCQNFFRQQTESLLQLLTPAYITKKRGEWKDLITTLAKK

[2] = molecular target: T2, Sentrin-specific protease 7 (Homo sapiens, UniProt Q9BQF6); assay type: functional;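 also: Luminescence-based dose-response confirmation of ultra-high-throughput screening hits, measuring inhibition of SENP7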
T2 sequence (Q9BQF6 whole entry): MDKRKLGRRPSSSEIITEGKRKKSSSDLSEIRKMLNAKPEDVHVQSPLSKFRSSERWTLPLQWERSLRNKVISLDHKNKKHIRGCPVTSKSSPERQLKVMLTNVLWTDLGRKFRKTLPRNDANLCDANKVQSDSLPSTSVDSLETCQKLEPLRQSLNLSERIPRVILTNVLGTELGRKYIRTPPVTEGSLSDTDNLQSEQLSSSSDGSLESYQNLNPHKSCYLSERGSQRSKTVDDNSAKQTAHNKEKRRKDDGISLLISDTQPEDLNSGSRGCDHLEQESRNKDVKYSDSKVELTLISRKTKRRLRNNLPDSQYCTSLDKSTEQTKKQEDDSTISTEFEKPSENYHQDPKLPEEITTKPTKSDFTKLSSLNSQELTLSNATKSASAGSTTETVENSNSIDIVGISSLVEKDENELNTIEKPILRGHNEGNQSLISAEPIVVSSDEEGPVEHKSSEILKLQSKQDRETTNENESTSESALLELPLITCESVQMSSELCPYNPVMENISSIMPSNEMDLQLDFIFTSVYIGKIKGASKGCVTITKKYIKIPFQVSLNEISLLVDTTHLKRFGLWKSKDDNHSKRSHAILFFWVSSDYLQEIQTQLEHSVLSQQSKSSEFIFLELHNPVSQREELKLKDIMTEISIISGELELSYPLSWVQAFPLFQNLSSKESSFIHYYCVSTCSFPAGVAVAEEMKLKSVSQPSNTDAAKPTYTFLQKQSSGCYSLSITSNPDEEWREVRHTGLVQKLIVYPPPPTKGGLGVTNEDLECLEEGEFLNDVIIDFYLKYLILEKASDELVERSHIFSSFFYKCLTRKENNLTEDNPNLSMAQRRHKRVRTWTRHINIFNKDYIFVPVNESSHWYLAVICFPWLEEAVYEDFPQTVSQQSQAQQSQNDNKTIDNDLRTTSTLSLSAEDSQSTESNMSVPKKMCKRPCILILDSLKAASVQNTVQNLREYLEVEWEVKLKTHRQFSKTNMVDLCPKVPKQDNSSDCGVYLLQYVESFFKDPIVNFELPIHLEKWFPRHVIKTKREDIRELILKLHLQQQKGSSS

[3] = molecular target: T3, Sentrin-specific protease 6 (Homo sapiens, UniProt Q9GZR1); assay type: functional;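 also: Luminescence-based dose-response confirmatory assay of SENP6 inhibition, following up an ultra-high-throughput screen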
T3 sequence (Q9GZR1 whole entry): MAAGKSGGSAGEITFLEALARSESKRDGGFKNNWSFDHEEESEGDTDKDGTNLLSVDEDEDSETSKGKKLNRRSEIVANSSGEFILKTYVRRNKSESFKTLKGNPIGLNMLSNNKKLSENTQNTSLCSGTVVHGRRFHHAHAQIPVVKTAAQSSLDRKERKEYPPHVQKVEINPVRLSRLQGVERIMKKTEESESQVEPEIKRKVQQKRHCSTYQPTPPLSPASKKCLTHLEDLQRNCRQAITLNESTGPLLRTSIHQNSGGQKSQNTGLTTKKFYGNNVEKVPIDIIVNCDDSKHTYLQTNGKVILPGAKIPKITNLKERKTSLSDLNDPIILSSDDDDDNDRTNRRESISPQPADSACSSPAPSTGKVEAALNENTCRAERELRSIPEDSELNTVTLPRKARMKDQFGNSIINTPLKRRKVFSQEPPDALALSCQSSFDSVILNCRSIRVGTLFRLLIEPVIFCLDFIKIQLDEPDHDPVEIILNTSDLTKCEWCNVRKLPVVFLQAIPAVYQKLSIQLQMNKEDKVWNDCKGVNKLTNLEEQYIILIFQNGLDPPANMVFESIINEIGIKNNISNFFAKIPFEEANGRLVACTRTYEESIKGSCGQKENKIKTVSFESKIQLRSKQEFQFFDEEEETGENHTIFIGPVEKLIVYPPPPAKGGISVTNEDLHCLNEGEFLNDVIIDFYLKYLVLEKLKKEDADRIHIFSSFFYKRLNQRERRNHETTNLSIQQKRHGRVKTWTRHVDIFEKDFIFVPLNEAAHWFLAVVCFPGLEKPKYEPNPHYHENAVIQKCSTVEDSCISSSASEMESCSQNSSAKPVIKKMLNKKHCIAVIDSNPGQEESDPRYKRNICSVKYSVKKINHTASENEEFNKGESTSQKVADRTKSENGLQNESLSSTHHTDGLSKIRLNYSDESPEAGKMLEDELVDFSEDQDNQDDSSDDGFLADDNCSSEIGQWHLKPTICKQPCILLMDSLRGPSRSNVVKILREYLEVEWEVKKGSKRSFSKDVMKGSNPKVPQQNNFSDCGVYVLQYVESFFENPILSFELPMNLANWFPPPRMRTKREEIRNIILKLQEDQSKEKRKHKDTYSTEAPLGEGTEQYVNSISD

[4] = molecular target: T4, Caspase-3 (Homo sapiens, UniProt P42574); assay type: functional;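 also: Dose-response selectivity test against caspase-3 for candidate inhibitors of sentrin-specific proteases (SENPs)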
T4 sequence (P42574 whole entry): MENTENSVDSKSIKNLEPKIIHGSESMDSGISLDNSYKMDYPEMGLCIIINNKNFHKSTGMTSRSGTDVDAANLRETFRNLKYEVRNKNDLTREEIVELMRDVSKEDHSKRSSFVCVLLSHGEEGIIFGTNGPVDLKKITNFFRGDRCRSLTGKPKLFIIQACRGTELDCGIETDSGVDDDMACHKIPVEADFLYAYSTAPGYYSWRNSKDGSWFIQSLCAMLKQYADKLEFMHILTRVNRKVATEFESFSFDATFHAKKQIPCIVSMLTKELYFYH

[5] = viability of uninfected HEp-2 cells – cell-based, HTS, cytotoxicity control for RSV inhibitor project, dose response (AID 2410); assay type: functional; details: human respiratory syncytial virus
[6] = molecular target: Large T antigen (Simian virus 40, UniProt P03070); assay type: functional, Betapolyomavirus macacae;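 also: Confirmatory-stage PubChem screen for compounds that inhibit SV40 T antigen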
Chain of Large T antigen (P03070 whole entry): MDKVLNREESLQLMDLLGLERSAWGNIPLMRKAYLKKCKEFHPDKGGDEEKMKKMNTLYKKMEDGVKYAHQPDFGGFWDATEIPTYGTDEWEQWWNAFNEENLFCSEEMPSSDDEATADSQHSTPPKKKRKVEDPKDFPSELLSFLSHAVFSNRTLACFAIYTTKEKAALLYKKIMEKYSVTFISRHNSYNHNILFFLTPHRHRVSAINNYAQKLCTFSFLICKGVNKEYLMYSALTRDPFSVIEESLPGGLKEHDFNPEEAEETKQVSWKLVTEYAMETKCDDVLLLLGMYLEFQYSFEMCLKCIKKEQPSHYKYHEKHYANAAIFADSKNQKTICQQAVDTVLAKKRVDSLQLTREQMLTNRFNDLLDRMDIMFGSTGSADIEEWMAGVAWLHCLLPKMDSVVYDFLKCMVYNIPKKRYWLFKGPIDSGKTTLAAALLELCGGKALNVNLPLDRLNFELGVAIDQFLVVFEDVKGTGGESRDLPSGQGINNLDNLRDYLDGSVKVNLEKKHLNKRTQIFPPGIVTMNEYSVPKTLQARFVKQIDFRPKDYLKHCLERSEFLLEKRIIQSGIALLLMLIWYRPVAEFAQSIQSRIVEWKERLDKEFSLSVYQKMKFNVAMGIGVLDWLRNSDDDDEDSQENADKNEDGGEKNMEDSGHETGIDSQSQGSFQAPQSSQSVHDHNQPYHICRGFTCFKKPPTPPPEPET

[7] = tested on: SN12K1; test: cells; assay type: functional; details: Homo sapiens
[8] = molecular target: T5, Rac GTPase-activating protein 1 (Homo sapiens, UniProt Q9H0H5); test: blockers of MgcRacGAP-driven Rac1 GTP hydrolysis – biochemical, ADP Hunter fluorescence, primary and confirmatory, confirmation (AID 624330); assay type: functional
T5 sequence (Q9H0H5 whole entry): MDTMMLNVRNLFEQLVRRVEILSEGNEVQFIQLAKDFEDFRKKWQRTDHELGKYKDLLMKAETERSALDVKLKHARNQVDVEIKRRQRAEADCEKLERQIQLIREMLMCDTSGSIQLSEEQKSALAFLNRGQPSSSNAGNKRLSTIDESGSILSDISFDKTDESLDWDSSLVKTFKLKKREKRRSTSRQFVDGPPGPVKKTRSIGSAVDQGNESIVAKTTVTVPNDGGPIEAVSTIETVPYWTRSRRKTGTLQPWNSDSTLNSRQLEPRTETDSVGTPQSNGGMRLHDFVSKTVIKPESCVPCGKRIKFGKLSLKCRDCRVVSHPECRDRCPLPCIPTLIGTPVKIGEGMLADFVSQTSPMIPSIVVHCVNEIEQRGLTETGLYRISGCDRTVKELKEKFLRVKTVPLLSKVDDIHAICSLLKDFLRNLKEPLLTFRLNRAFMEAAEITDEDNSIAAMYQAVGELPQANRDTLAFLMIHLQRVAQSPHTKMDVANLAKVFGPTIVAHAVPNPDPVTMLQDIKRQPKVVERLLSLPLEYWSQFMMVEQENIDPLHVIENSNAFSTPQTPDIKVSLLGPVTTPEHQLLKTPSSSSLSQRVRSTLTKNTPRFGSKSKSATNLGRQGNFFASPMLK

[9] = A Cell Based Secondary Assay To Explore Cytotoxicity of Compounds that Sensitize Mycobacterium Tuberculosis to Beta-Lactam Antibiotics.; assay type: functional

For `NC(=NOC(=O)c1ccc(Cl)cc1Cl)c1ccc(Cl)cc1`, the IC50 [1] was > 100 µM (inactive), the IC50 [2] was 9.34 µM (active) and the IC50 [3] was > 100 µM (inactive). The IC50 [4] was 35.6 µM (active).

In the case of `Cc1ccc(-n2nc3c(=O)n(CCCC(=O)NCc4cccc(F)c4)nc(C)c3c2C)cc1`, the CC50 [5] is reported as > 50 µM (active).

In the case of `CCCOC(=O)c1cc(-c2ccc(C=O)o2)ccc1Cl`, the CC50 [5] is reported as 36.9 µM (active).

In the case of `C=C(C)c1sc(-c2ccc(Cl)cc2)nc1C`, the IC50 [1] is reported as 69.1 µM (active), the IC50 [2] is reported as 6.67 µM (active) and the IC50 [3] is reported as 21.4 µM (active). For the same molecule, the IC50 [4] was 13.4 µM (active).

For `Nc1nc2ccccc2n1/N=C/c1ccc(Br)cc1`, the IC50 [1] was 5.66 µM (active), the IC50 [2] was 4.21 µM (active) and the IC50 [3] was 5.96 µM (active). For the same molecule, the IC50 [4] was 16.1 µM (active).

In the case of `CCOC(=O)C1=C(C)N(c2ccccc2)C(=O)/C1=C\c1ccc(O)c(OC)c1`, the IC50 [6] is reported as 47.1 µM (active).

In the case of `Nc1ccn(C2C=C(CO)C(O)C2O)c(=O)c1` (centres undefined), the GI50 [7] is reported as > 625 µM (inactive).

In the case of `CC(C)(c1cc(Br)c(O)c(Br)c1)c1cc(Br)c(O)c(Br)c1`, the CC50 [5] is reported as 24.9 µM (active).

With `N=C1/C(=N\Nc2ccccc2F)C(=O)NN1c1ccccc1` the IC50 [1] was > 100 µM (inactive), the IC50 [2] was 2.52 µM (active) and the IC50 [3] was 2.09 µM (active). The IC50 [4] was 16.4 µM (active).

In the case of `CCc1nnc(S)n1/N=C/c1ccc(N(C)c2ccccc2)cc1`, the CC50 [5] is reported as 28.1 µM (active).

For `CCOC(=O)C1C(=O)C=C(c2ccc(C)cc2)CC1c1ccccc1` (centres undefined), the CC50 [5] was 35.4 µM (active).

For `COc1ccc(-c2nc(O)c3cnccn23)cc1`, the IC50 [6] was 24.2 µM (active).

In the case of `CSc1nc(C(=O)N2CCc3c([nH]c4ccccc34)C2c2ccccn2)cs1` (centres undefined), the CC50 [5] is reported as 30.1 µM (active).

For `COc1ccc(/C=N\NC(=O)c2ccc(O)nn2)cc1O`, the IC50 [8] was 26.5 µM (active) and the IC50 [6] was 14.3 µM (active).

For `COc1ccc(Nc2nc(-c3cccs3)nc3ccccc23)c(OC)c1`, the CC50 [5] was 32.9 µM (active).

In the case of `CCNc1nc(NCC)nc(N/N=C/c2ccc(O)c(OC)c2)n1`, the IC50 [6] is reported as 11 µM (active).

For `Cc1ccc(O)c(-c2cc(-c3ccccc3F)[nH]n2)c1`, the IC50 [1] was 4.59 µM (active), the IC50 [2] was 3.4 µM (active) and the IC50 [3] was 21.9 µM (active). The CC50 [9] was > 40 µM (active) and the IC50 [4] was 31.9 µM (active).
